Measured values published in patent US20220033396A1, “FURTHER HETEROAROMATIC COMPOUNDS HAVING ACTIVITY AGAINST RSV” (priority 2018, published 2022).

Key:
rgRSV224 virus = experiment: microbe, parasite or virus in culture; type: cell-based; conditions: human respiratory syncytial virus, 72 h; rgRSV224 virus (MOI=1), HeLa cells, GFP expression three days post-virus exposure; averaged data of several repeat experiments; read-out: RSV HELA EC50
in vitro = conditions: human

Structure (SMILES)	EC50 (rgRSV224 virus) [µM]	CC50 at 3 days (in vitro) [µM]
C[C@@H]1c2ccsc2CCN1C(=O)c1cc(C2CC2)c2nc(-c3ccc(N4CC[C@H](C(N)=O)C4)nc3F)cn2c1 (single isomer, unassigned) [Compound 23, (3S)-1-(5-{8-cyclopropyl-6-[(4*R)-4-methyl-4,5,6,7-tetrahydrothieno[3,2-c]pyridine-5-carbonyl]imidazo[1,2-a]pyridin-2-yl}-6-fluoropyridin-2-yl)pyrrolidine-3-carboxamide]	0.18	34.7
CC1c2ccsc2CCN1C(=O)c1cc(C2CC2)c2nc(-c3ccc(NC(=O)N4CC[C@@H](O)C4)cc3F)cn2n1 (single isomer, unassigned) [Compound 38, (R)-N-(4-(8-cyclopropyl-6-((R*)-4-methyl-4,5,6,7-tetrahydrothieno[3,2-c]pyridine-5-carbonyl)imidazo[1,2-b]pyridazin-2-yl)-3-fluorophenyl)-3-hydroxypyrrolidine-1-carboxamide]	0.012	35.9
CCc1cc(C(=O)N2CCc3sc(F)cc3C2C)nn2cc(-c3ccc(NC(=O)N4CC[C@@H](O)C4)cc3F)nc12 (single isomer, unassigned) [Compound 40, (R)-N-(4-(8-ethyl-6-((R*)-2-fluoro-4-methyl-4,5,6,7-tetrahydrothieno[3,2-c]pyridine-5-carbonyl)imidazo[1,2-b]pyridazin-2-yl)-3-fluorophenyl)-3-hydroxypyrrolidine-1-carboxamide]	0.017	29.9
CCc1cc(C(=O)N2CCc3ccc(F)cc3C2C)nn2cc(-c3ccc(NC(=O)N4CC[C@@H](O)C4)cc3F)nc12 (single isomer, unassigned) [Compound 41, (R)-N-(4-(8-ethyl-6-((R*)-7-fluoro-1-methyl-1,2,3,4-tetrahydroisoquinoline-2-carbonyl)-imidazo[1,2-b]pyridazin-2-yl)-3-fluorophenyl)-3-hydroxypyrrolidine-1-carboxamide]	0.026	26.8
C[C@@H]1c2ccccc2CCN1C(=O)c1cc(C2CC2)c2nc(-c3ccc(C(=O)O)cc3F)cn2c1 [Compound 1, 4-{8-Cyclopropyl-6-[(1R)-1-methyl-1,2,3,4-tetrahydroisoquinoline-2-carbonyl]imidazo[1,2-a]pyridin-2-yl}-3-fluorobenzoic Acid]	0.51	60.4
C[C@@H]1c2ccccc2CCN1C(=O)c1cc(C2CC2)c2nc(-c3ccc(C(N)=O)cc3F)cn2c1 [Compound 2, 4-{8-Cyclopropyl-6-[(1R)-1-methyl-1,2,3,4-tetrahydroisoquinoline-2-carbonyl]imidazo[1,2-a]pyridin-2-yl}-3-fluorobenzamide]	0.072	54
C[C@@H]1c2ccccc2CCN1C(=O)c1cc(C2CC2)c2nc(-c3ccc(N)cc3F)cn2c1 [Compound 3, 4-{8-Cyclopropyl-6-[(1R)-1-methyl-1,2,3,4-tetrahydroisoquinoline-2-carbonyl]imidazo[1,2-a]pyridin-2-yl}-3-fluoroaniline]	0.054	68
C[C@@H]1c2ccccc2CCN1C(=O)c1cc(C2CC2)c2nc(-c3ccc(NC(=O)N4CC[C@H](O)C4)cc3F)cn2c1 [Compound 4, (3S)-N-(4-{8-Cyclopropyl-6-[(1R)-1-methyl-1,2,3,4-tetrahydroisoquinoline-2-carbonyl]imidazo[1,2-a]pyridin-2-yl}-3-fluorophenyl)-3-hydroxypyrrolidine-1-carboxamide]	0.035	51.4
C[C@@H]1c2ccccc2CCN1C(=O)c1cc(C2CC2)c2nc(-c3ccc(NC(=O)N4CC[C@@H](O)C4)cc3F)cn2c1 [Compound 5, (3R)-N-(4-{8-Cyclopropyl-6-[(1R)-1-methyl-1,2,3,4-tetrahydroisoquinoline-2-carbonyl]imidazo[1,2-a]pyridin-2-yl}-3-fluorophenyl)-3-hydroxypyrrolidine-1-carboxamide]	0.048	40.1
C[C@@H]1c2ccccc2CCN1C(=O)c1cc(C2CC2)c2nc(-c3ccc(N4CC[C@H](C(=O)O)C4)cc3F)cn2c1 [Compound 9, (3S)-1-(4-{8-Cyclopropyl-6-[(1R)-1-methyl-1,2,3,4-tetrahydroisoquinoline-2-carbonyl]imidazo[1,2-a]pyridin-2-yl}-3-fluorophenyl)pyrrolidine-3-carboxylic Acid]	0.045	68.4
C[C@@H]1c2ccccc2CCN1C(=O)c1cc(C2CC2)c2nc(-c3ccc(N4CC[C@H](C(N)=O)C4)cc3F)cn2c1 [Compound 10, (3S)-1-(4-{8-Cyclopropyl-6-[(1R)-1-methyl-1,2,3,4-tetrahydroisoquinoline-2-carbonyl]imidazo[1,2-a]pyridin-2-yl}-3-fluorophenyl)pyrrolidine-3-carboxamide]	0.049	70.4
CNC(=O)[C@H]1CCN(c2ccc(-c3cn4cc(C(=O)N5CCc6ccccc6[C@H]5C)cc(C5CC5)c4n3)c(F)c2)C1 [Compound 11, (3S)-1-(4-{8-Cyclopropyl-6-[(1R)-1-methyl-1,2,3,4-tetrahydroisoquinoline-2-carbonyl]imidazo[1,2-a]pyridin-2-yl}-3-fluorophenyl)-N-methylpyrrolidine-3-carboxamide]	0.062	> 100
C[C@@H]1c2ccccc2CCN1C(=O)c1cc(C2CC2)c2nc(-c3ccc(N4CC[C@H](O)C4)cc3F)cn2c1 [Compound 12, (3S)-1-(4-{8-Cyclopropyl-6-[(1R)-1-methyl-1,2,3,4-tetrahydroisoquinoline-2-carbonyl]imidazo[1,2-a]pyridin-2-yl}-3-fluorophenyl)pyrrolidin-3-ol]	0.169	67.7
C[C@@H]1CCCCCN1C(=O)c1cc(C2CC2)c2nc(-c3ccc(N4CC[C@H](C(N)=O)C4)cc3F)cn2c1 [Compound 15, (3S)-1-(4-{8-Cyclopropyl-6-[(2R)-2-methylazepane-1-carbonyl]imidazo[1,2-a]pyridin-2-yl}-3-fluorophenyl)pyrrolidine-3-carboxamide]	1.07	13.2
C[C@@H]1c2ccccc2CCN1C(=O)c1cc(-c2ccccc2)c2nc(-c3ccc(N4CC[C@H](C(N)=O)C4)cc3F)cn2c1 [Compound 16, (3S)-1-(3-Fluoro-4-{6-[(1R)-1-methyl-1,2,3,4-tetrahydroisoquinoline-2-carbonyl]-8-phenylimidazo[1,2-a]pyridin-2-yl}phenyl)pyrrolidine-3-carboxamide]	0.186	93.6
C[C@@H]1c2ccccc2CCN1C(=O)c1cc(-c2cccnc2)c2nc(-c3ccc(N4CC[C@H](C(N)=O)C4)cc3F)cn2c1 [Compound 17, (3S)-1-(3-Fluoro-4-{6-[(1R)-1-methyl-1,2,3,4-tetrahydroisoquinoline-2-carbonyl]-8-(pyridin-3-yl)imidazo[1,2-a]pyridin-2-yl}phenyl)pyrrolidine-3-carboxamide]	0.163	44.3
C[C@@H]1c2ccccc2CCN1C(=O)c1cc(N(C)C)c2nc(-c3ccc(N4CC[C@H](C(N)=O)C4)cc3F)cn2c1 [Compound 19, (3S)-1-{4-[8-(Dimethylamino)-6-[(1R)-1-methyl-1,2,3,4-tetrahydroisoquinoline-2-carbonyl]imidazo[1,2-a]pyridin-2-yl]-3-fluorophenyl}pyrrolidine-3-carboxylamide]	0.141	43.9
C[C@@H]1c2ccccc2CCN1C(=O)c1cc(N2CCCC2)c2nc(-c3ccc(N4CC[C@H](C(N)=O)C4)cc3F)cn2c1 [Compound 20, (3S)-1-(3-Fluoro-4-{6-[(1R)-1-methyl-1,2,3,4-tetrahydroisoquinoline-2-carbonyl]-8-(pyrrolidin-1-yl)imidazo[1,2-a]pyridin-2-yl}phenyl)pyrrolidine-3-carboxamide]	0.149	> 100
Cc1c(-c2ccc(N3CC[C@H](C(N)=O)C3)cc2F)nc2c(C3CC3)cc(C(=O)N3CCc4ccccc4[C@H]3C)cn12 [Compound 21, (3S)-1-(4-{8-Cyclopropyl-3-methyl-6-[(1R)-1-methyl-1,2,3,4-tetrahydroisoquinoline-2-carbonyl]imidazo[1,2-a]pyridin-2-yl}-3-fluorophenyl)pyrrolidine-3-carboxamide]	0.638	35
C[C@@H]1c2ccccc2CCN1C(=O)c1cc(C2CC2)c2nc(-c3ccc(N4CC[C@H](C(N)=O)C4)nc3F)cn2c1 [Compound 22, (3S)-1-(5-{8-Cyclopropyl-6-[(1R)-1-methyl-1,2,3,4-tetrahydroisoquinoline-2-carbonyl]imidazo[1,2-a]pyridin-2-yl}-6-fluoropyridin-2-yl)pyrrolidine-3-carboxamide]	0.171	37.4
C[C@@H]1c2ccccc2CCN1C(=O)c1cc(C2CC2)c2nc(-c3ccc(-n4cc(C(=O)O)cn4)cc3F)cn2c1 [Compound 25, 1-(4-{8-Cyclopropyl-6-[(1R)-1-methyl-1,2,3,4-tetrahydroisoquinoline-2-carbonyl]imidazo[1,2-a]pyridin-2-yl}-3-fluorophenyl)-1H-pyrazole-4-carboxylic Acid]	0.369	51.3
C[C@@H]1c2ccccc2CCN1C(=O)c1cc(C2CC2)c2nc(-c3ccc(-n4cc(C(N)=O)cn4)cc3F)cn2c1 [Compound 26, 1-(4-{8-Cyclopropyl-6-[(1R)-1-methyl-1,2,3,4-tetrahydroisoquinoline-2-carbonyl]imidazo[1,2-a]pyridin-2-yl}-3-fluorophenyl)-1H-pyrazole-4-carboxamide]	0.202	42.7
C[C@@H]1c2ccccc2CCN1C(=O)c1cc(C2CC2)c2nc(-c3ccc(N4CC(O)C4)cc3F)cn2c1 [Compound 27, 1-(4-{8-Cyclopropyl-6-[(1R)-1-methyl-1,2,3,4-tetrahydroisoquinoline-2-carbonyl]imidazo[1,2-a]pyridin-2-yl}-3-fluorophenyl)azetidin-3-ol]	0.119	98.1
